Values after ≈ are worked out from the molar mass of the structure shown.
Legend:
[1] = target: Glycogen synthase kinase-3 beta (Homo sapiens, UniProt P49841); experiment: Inhibition of human recombinant full length GSK3-beta after 1 hrs by luminescence assay
Escherichia coli = experiment: Antibacterial activity against Escherichia coli after 18 hrs by microdilution assay; format: functional
Staphylococcus aureus = experiment: Antibacterial activity against Staphylococcus aureus after 18 hrs by microdilution assay; format: functional

Chain of Glycogen synthase kinase-3 beta (P49841 whole entry): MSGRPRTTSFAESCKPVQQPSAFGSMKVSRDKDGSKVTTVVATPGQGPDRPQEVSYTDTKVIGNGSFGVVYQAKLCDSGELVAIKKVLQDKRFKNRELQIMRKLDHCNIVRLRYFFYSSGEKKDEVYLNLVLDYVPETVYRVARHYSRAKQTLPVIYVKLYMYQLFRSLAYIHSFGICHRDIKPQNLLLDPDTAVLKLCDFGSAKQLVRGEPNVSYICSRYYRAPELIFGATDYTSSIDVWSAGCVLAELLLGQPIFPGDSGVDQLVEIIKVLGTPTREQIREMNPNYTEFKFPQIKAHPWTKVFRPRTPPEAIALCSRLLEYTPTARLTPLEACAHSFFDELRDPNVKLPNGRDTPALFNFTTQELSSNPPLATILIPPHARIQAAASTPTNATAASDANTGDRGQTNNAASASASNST

IC50 [1] [nM]	MIC (Escherichia coli) [µM]	MIC (Staphylococcus aureus) [µM]	Compound
1200			CC(C)Nc1c(F)c(N)c2c(=O)c(C(=O)O)cn(C3CC3)c2c1F
600			Nc1c(F)c(NC2CCCCC2)c(F)c2c1c(=O)c(C(=O)O)cn2C1CC1
660			Nc1c(F)c(NCCc2c[nH]c3ccccc23)c(F)c2c1c(=O)c(C(=O)O)cn2C1CC1
2100			Nc1c(F)c(NCCN2CCOCC2)c(F)c2c1c(=O)c(C(=O)O)cn2C1CC1
440			Nc1c(F)c(NCCc2ccccc2)c(F)c2c1c(=O)c(C(=O)O)cn2C1CC1
45			Nc1c(F)c(NCCCc2ccccc2)c(F)c2c1c(=O)c(C(=O)O)cn2C1CC1
290			Nc1c(F)c(NCCCCc2ccccc2)c(F)c2c1c(=O)c(C(=O)O)cn2C1CC1
3400			Nc1c(F)c(NCCn2ccnc2)c(F)c2c1c(=O)c(C(=O)O)cn2C1CC1
45			Nc1c(F)c(NCCCn2ccnc2)c(F)c2c1c(=O)c(C(=O)O)cn2C1CC1
47			Nc1c(F)c(NCCNc2cccc3ccccc23)c(F)c2c1c(=O)c(C(=O)O)cn2C1CC1
100			Nc1c(F)c(NCCc2ccncc2)c(F)c2c1c(=O)c(C(=O)O)cn2C1CC1
190			Nc1c(F)c(NCCNc2ccccn2)c(F)c2c1c(=O)c(C(=O)O)cn2C1CC1
110			CC(C)OCCCNc1c(F)c(N)c2c(=O)c(C(=O)O)cn(C3CC3)c2c1F
17000			COc1c(NCCCc2ccccc2)c(F)cc2c(=O)c(C(=O)O)cn(C3CC3)c12
65			COc1c(NCCCc2ccccc2)c(F)c(N)c2c(=O)c(C(=O)O)cn(C3CC3)c12
26000			COc1c(NCCNc2cccc3ccccc23)c(F)cc2c(=O)c(C(=O)O)cn(C3CC3)c12
31			COc1c(NCCNc2cccc3ccccc23)c(F)c(N)c2c(=O)c(C(=O)O)cn(C3CC3)c12

IC50 [1] [nM]	MIC (Escherichia coli) [µM]	MIC (Staphylococcus aureus) [µM]	Compound
13	0.8 (≈ 0.318 µg/mL)	0.2 (≈ 0.0795 µg/mL)	Nc1c(F)c(NCCNc2ccccn2)cc2c1c(=O)c(C(=O)O)cn2C1CC1
160	9 (≈ 3.85 µg/mL)	1 (≈ 0.427 µg/mL)	COc1c(NCCNc2ccccn2)c(F)c(N)c2c(=O)c(C(=O)O)cn(C3CC3)c12
1500	> 28	7 (≈ 3.19 µg/mL)	COc1c(NCCNc2ccccn2)c(F)c(N)c2c(=O)c(C(=O)O)cn(C3CCCC3)c12
22	> 29	> 29	Nc1c(F)c(NCCNc2ccccn2)c(F)c2c1c(=O)c(C(=O)O)cn2C1CCCC1
1000	25 (≈ 9.68 µg/mL)	25 (≈ 9.68 µg/mL)	COc1c(NCCNc2ccccn2)c(F)c(N)c2c(=O)c(C(=O)O)c[nH]c12
270	> 13	13 (≈ 5.22 µg/mL)	COc1c(NCCNc2ccccn2)c(F)c(N)c2c(=O)c(C(=O)O)cn(C)c12
16000	> 28	> 28	COc1c(NCCNc2ccccn2)c(F)c(N)c2c(=O)c(C(=O)O)cn(CCC(C)C)c12
560	> 243	243 (≈ 100 µg/mL)	C[C@@H]1COc2c(NCCNc3ccccn3)c(F)c(N)c3c(=O)c(C(=O)O)cn1c23
44	4 (≈ 1.65 µg/mL)	2 (≈ 0.827 µg/mL)	C[C@H]1COc2c(NCCNc3ccccn3)c(F)c(N)c3c(=O)c(C(=O)O)cn1c23
31	> 2	> 2	CC(C)[C@@H]1COc2c(NCCNc3ccccn3)c(F)c(N)c3c(=O)c(C(=O)O)cn1c23
75	> 29	14 (≈ 6.18 µg/mL)	CC(C)[C@H]1COc2c(NCCNc3ccccn3)c(F)c(N)c3c(=O)c(C(=O)O)cn1c23
49	59 (≈ 25.2 µg/mL)	59 (≈ 25.2 µg/mL)	CC1(C)COc2c(NCCNc3ccccn3)c(F)c(N)c3c(=O)c(C(=O)O)cn1c23
440	> 37	> 37	CC1(C)Cn2cc(C(=O)O)c(=O)c3c(N)c(F)c(NCCNc4ccccn4)c(c32)O1
160	> 7	> 7	CC1(C)COc2c(NCCNc3ccccn3)c(F)c(N)c3c(=O)c(C(=O)O)cn(c23)C1
57	> 36	> 36	Nc1c(F)c(NCCNc2ccccn2)c2c3c1c(=O)c(C(=O)O)cn3C1(CCC1)CO2
12	> 71	71 (≈ 32.2 µg/mL)	Nc1c(F)c(NCCNc2ccccn2)c2c3c1c(=O)c(C(=O)O)cn3C1(CCCC1)CO2
900			Nc1ccc(CCNc2c(F)c(N)c3c(=O)c(C(=O)O)cn(C4CC4)c3c2F)cc1

Reference: ChEMBL document CHEMBL1833925, “Synthesis and structure-activity relationship of 4-quinolone-3-carboxylic acid based inhibitors of glycogen synthase kinase-3β” (Bioorg Med Chem Lett, 2011)
